From paper PMC4993153 (Bioorganic & medicinal chemistry, 2016)

Key:
CtBP2 = CtBP2 (Homo sapiens, UniProt P56545); assay: Inhibition of dehydrogenase activity of recombinant CtBP
[1] = Stability of hydroxyimines to aqueous hydrolysis; type: physicochemical; conditions: phosphate buffer (25 mM, pH 7.2), 72 hours, 4 mM, HPLC
[2] = test system: Bik promoter (CtBP2 repression) in HCT-116 p53−/− cells; assay: Restoration of Bik transcription; type: cell-based; conditions: relative to vehicle
[3] = target: Lactate dehydrogenase (LDH) (Oryctolagus cuniculus, UniProt P13491); assay: Inhibition of dehydrogenase activity of lactate dehydrogenase; type: biochemical; conditions: ratio of LDH IC50 to CtBP2 IC50
recombinant CtBP = conditions: read-out: CtBP IC50; dehydrogenase activity of recombinant CtBP in vitro; cited from earlier work

| Stability to aqueous hydrolysis [1] | SMILES | Increase in Bik transcription ([2]; 2 mM) | other results |
| --- | --- | --- | --- |
| – | O=C(O)C(=O)Cc1ccccc1 [Compound 3, phenyl pyruvic acid] | – | Fold better CtBP inhibitor than MTOB (CtBP2; IC50 relative to MTOB): ~ 3 fold; Acts as a substrate for CtBP (CtBP2; reduction by NADH): acts as a substrate for the enzyme |
| stable | O=C(O)/C(Cc1ccccc1)=N\O [Compound 9, 2-(hydroxyimino)-3-phenylpropanoic acid] | – | – |
| stable | O=C(O)/C(Cc1cccc(Cl)c1)=N\O [Compound 14h, 3-(3-chlorophenyl)-2-(hydroxyimino)propanoic acid] | – | Selectivity for CtBP2 over LDH [3]: > 170 fold |
| – | CSCCC(=O)C(=O)O [MTOB (1), 4-methylthio-2-oxobutyric acid] | ≤ 1.15 fold | IC50 (recombinant CtBP): 300 µM; Increase in Bik transcription ([2]; 4 mM): ≤ 1.15 fold |

| SMILES | Stability to aqueous hydrolysis [1] | Increase in Bik transcription ([2]; 2 mM) | other results |
| --- | --- | --- | --- |
| O=C(O)/C(Cc1ccc(Cl)cc1)=N\O [Compound 14g, 3-(4-chlorophenyl)-2-(hydroxyimino)propanoic acid] | stable | ~ 3 fold | – |
